Legend:
[1] = target: T1, GCP-II (Mus musculus, UniProt O35409); experiment: GCP-II activity in brain tissue of mice treated with GCP-II inhibitor (3H-NAAG); assay type: in vivo; conditions: 10 mg/kg twice a week, 30 days
T1 construct: the cell membrane layer existed GCP-II was isolated from the mouse brain tissue; from tissue; host or cells: Brain membrane fraction of wild-type and APP Swedish/presenilin delta-9 transgenic mice
Experimental: (§1) To conform whether GCP-II can actually degrade over-expressing Aβ in vivo, the present inventors investigated Aβ degradation capacity by GCP-II inhibitor in a transgenic mouse over-expressing these Aβ. Concretely, after prepared genetically Aβover-expressing dementia model mouse (APP Swdish/presenilin delta 9 deltion, 12 weeks, The Hackson Laboratory, USA), injected into visceral cavity twice in a week, dosage of 10 mg/kg, 30 days. At this time, PBS used as a control. After finally injected GCP-II inhibitor, cerebral cortex, hippocampus and cerebellum in mouse brain was dissected and measured their weight respectively using microblance. And then, the above tissues were incubated in 6 M guanidine-hydrochrolide solution, room temperature, 4 hours and obtained supernatant by centrifugation after added iced PBS at 1/10 ratio. […] Then treated HRP (horseradish peroxidase) tagging secondly actibody, the above reactant was measured absorbance at 450 nm wavelength after treated stained using TMB (tetramethylbensidine). To conform whether GCP-II inhibitor was treated correctly, a part of the above mouse brain tissue were dissected and detected GCP-II activaty. […] In this manner, isolated sample were measured GCP-II activity using isotope meter.

[2] = system: Aβ40 and Aβ42; experiment: Aβ yield in cerebral cortex of mice treated with GCP-II inhibitor (ELISA); assay type: in vivo; conditions: transgenic mouse (APP Swedish/presenilin delta 9), 10 mg/kg into visceral cavity twice a week, 30 days, PBS control
Experimental: as §1

[3] = system: Aβ40; experiment: Aβ degradation in primary cortical cells over-expressing GCP-II by lenti-virus (ELISA); assay type: cell-based, rat; conditions: infected by 10, 20 and 50 MOI for three days, Aβ40 added for 20 hours
Text: To investigate whether Aβ degradation effect of GCP-II was still observed in cortical cells or not, GCP-II was over-expressed in primary cortical cells by using lenti-virus, and then the level of Aβ degradation was investigated.
To investigate whether the expression of GCP-II can degrade Aβ in cortical cells, GCP-II was over-expressed in the primary cortical cells by using lenti-virus, followed by investigation of Aβ degradation (FIG. 2). The primary cortical cells were separated and cultured from E16 rats (Sprague-Dawley rats). To prevent non-neuronal cells, which took less than 10% in the culture cells, from spreading, the cells were transferred and further cultured in a 24 well plate (1×10^5 cells/well) containing 5-fluoro-2-deoxyuridine from the 3-6 days after the first culture. To prepare lenti-virus expressing GCP-II, GCP-II was inserted into pLentiH1.2 vector (named ‘pLentiH1.2-GCPII’, which was then introduced into 293T cells along with pLentiH1.2-GCP-II and packaging construct and envelope construct. Forty eight hours later, the concentration of the virus released in the medium was measured.
The primary cortical cells were infected with Lenti-GCP-II for three days, to which Aβ40 was added for 20 hours. Then, the level of Aβ remaining in the medium was measured by ELISA as explained in Example 1. […]

[4] = system: synthetic Aβ40 or Aβ42; experiment: Aβ degradation in HEK293 cells over-expressing GCP-II (ELISA of remaining Aβ in medium); assay type: cell-based, human
Experimental: To investigate the Aβ degradation by GCP-II, synthetic Aβ40 (FIG. 1A) or Aβ42 (FIG. 1B) was added to the cell culture solution containing HEK293 cells over-expressing GCP-II and HEK293 cells over-expressing NEP and IDE which are known as Aβ degrading enzymes. After reaction, the level of Aβ in the medium was measured by ELISA.
To measure the level of Aβ degradation by GCP-II, 2 ng/uL of synthetic Aβ40 or Aβ42 (Biosource international INC.) was added to HEK293 cell culture medium. Twenty hours later, the remaining Aβ in the medium was quantified by ELISA kit (Biosource international INC.).
HEK293 cells (human embryonic kidney cells) over-expressing GCP-II were temporarily transfected with GCP-II expression vector ‘pHA-GCPII’ or ‘pmyc-GCPII’ prepared in the above Example <1-1>, by using a transfection reagent (Lipofectamine Plus™ Reagent, Invitrogen, USA). The HEK293 cells with the temporary insertion of GCP-II were cultured in DMEM (Dulbecco's modified Eagle's medium) supplemented with 10% FBS (fetal bovine serum), 100 IU/ml of penicillin and 100[…]/ml of streptomycin. Cell lysate was obtained from the HEK293 cells by using RIPA buffer containing a protease inhibitor (aprotinin, leupeptin or phenylmethyl sulfonyl fluoride), and GCP-II protein was separated with 8% SDS-PAGE to examine the expression of GCP-II.
HEK293 cells transfected with NEP and IDE plasmids were used as a positive control and the cells transfected with mock vector were used as a negative control. The expressions of human GCP-II and NEP in the transfected HEK293 cells were investigated by Western blot analysis using anti-GCP-II antibody (MAB544B, Maine Biotechnology) or anti-NEP antibody (L-CD10-270, Novocastra) respectively (FIG. 1C).

[5] = system: amylin; experiment: GCP-II substrate specificity, MALDI-TOF molecular weight analysis; assay type: biochemical; conditions: 37° C. for 15 hours
Experimental: (§2) To investigate whether GCP-II degrades Aβ specifically, GCP-II was reacted with amylin and ACTH (adrenocorticotropic hormone) or insulin β-chain at 37° C. for 15 hours, followed by measuring the molecular weight of each sample with a molecular weight analyzer (FIG. 7).

[6] = system: ACTH (adrenocorticotropic hormone); experiment: as above; assay type: biochemical; conditions: 37° C. for 15 hours
Experimental: as §2

[7] = system: insulin β-chain; experiment: as above; assay type: biochemical; conditions: 37° C. for 15 hours
Experimental: as §2

[8] = system: Aβ monomer and oligomer (multimer); experiment: Degradation of Aβ monomer and multimer by rGCP-II (Western blotting); assay type: biochemical; conditions: Aβ matured for 7 days, reacted 20 hours, increasing GCP-II concentration
Experimental: Western blotting was performed using anti-Aβ antibody (6E10) more than 5 times (FIG. 9A) and the results were quantified by an image program (Image J program, NIH, USA) (FIG. 9B).

[9] = system: endogenous Aβ42; experiment: Degradation of endogenous Aβ from swAPP stable HEK293 cells by rGCP-II (ELISA); assay type: biochemical, human; conditions: #2 colony of swAPP stable cells, 0, 0.5, 2.5 and 10[…]/μL of rGCP-II
Text: To investigate whether human GCP-II can actually degrade endogenous Aβ a cell line stably expressing ^swAPP (Swedish mutant APP) gene involved in the over-production of Aβ was constructed. For this construction, ^swAPP was introduced into HEK293 cells, followed by selection with G418. The recovered medium was reacted with rGCP-II protein and then Aβ remaining unreacted in the medium was quantified by ELISA (FIG. 8).
The concentration of Aβ42 and the expression level of APP were used as standards for the selection of ^swAPP stable cell colonies. […] As a result, the level of endogenous Aβ42 was decreased. From the above result, it was confirmed that rGCP-II is able to degrade physiologically generated (endogenous) Aβ alike (FIG. 8B).

[10] = Enzyme activity (Km) of purified rGCP-II, [3H] glutamate release; assay type: biochemical; conditions: 0.002-2 μM substrate, 37° C.
Experimental: The enzyme activity of rGCP-II was saturated from 1.0 μM of N-acetyl-L-aspartyl-L-[3,4-^3H] and as a result, the Km value of rGCP-II was determined to be 0.5 μM.

[11] = system: soluble Aβ40 and insoluble Aβ40; experiment: Degradation of soluble and insoluble Aβ from cerebral cortex by rGCP-II; assay type: biochemical
Experimental: The cerebral cortex was homogenized in 50 mM Tris-HCl (TBS) containing protease inhibitor cocktail (pH 7.6), followed by centrifugation at 4° C. with 100,000 g for 40 minutes. The supernatant was defined as a soluble fragment. The pellet was sonicated in 6 M guanidine-HCl solution containing protease inhibitor cocktail, which was defined as an insoluble fragment. The concentrations of each soluble Aβ and insoluble Aβ were measured.
The soluble Aβ or insoluble Aβ was co-cultured with rGCP-II.

[12] = GCP-II over-expressing HEK293 cells, compared with mock vector

T1 sequence (O35409 whole entry): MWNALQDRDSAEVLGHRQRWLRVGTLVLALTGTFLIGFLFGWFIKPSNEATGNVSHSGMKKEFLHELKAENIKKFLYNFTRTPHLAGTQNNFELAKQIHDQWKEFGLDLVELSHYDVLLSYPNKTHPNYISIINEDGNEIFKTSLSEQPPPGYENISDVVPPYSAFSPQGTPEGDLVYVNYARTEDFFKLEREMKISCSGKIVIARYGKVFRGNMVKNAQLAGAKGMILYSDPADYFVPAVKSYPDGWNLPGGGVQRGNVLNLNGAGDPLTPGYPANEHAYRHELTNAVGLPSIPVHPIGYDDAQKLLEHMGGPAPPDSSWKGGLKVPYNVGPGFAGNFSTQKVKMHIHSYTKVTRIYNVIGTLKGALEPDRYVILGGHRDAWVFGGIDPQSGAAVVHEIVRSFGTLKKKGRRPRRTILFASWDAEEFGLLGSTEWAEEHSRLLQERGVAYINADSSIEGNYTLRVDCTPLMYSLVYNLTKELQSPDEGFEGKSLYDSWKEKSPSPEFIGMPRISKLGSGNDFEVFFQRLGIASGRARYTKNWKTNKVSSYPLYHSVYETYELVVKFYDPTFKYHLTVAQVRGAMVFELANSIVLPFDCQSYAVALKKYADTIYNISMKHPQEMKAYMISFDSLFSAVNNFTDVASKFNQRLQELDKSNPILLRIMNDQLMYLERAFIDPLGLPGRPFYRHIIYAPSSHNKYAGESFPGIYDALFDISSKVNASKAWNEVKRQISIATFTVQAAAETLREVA

O=C(O)CCC(CP(=O)(O)O)C(=O)O (stereo not shown) [2-PMPA]
reduction of GCP-II activity in brain ([1]; transgenic mouse): about 30% | reduction of GCP-II activity in brain ([1]; wild type mouse): about 50% | increase of yield of Aβ42 in cerebral cortex versus control [2]: about 30% | yield of Aβ40 in cerebral cortex versus control [2]: no significantly difference

GCP-II: transmembrane metalloproteinase glutamate carboxypeptidase II (SEQ. ID. NO: 2), over-expressed in cells from pHA-GCPII or pMyc-GCPII
Aβ reduction in primary cortical cells [3]: more than 90% | decrease of Aβ40 level in cell culture medium [4, 12]: 30% | decrease of Aβ42 level in cell culture medium [4, 12]: 30% | level of Aβ remaining in the culture medium ([4]; HEK293 cells expressing GCP-II, 20 hours after addition of Aβ, compared with cells transfected with mock vector): 60±5% | degradation of amylin (MALDI-TOF peaks) [5]: two peaks at 1500 and 2000 | degradation of ACTH [6]: not degraded | degradation of insulin β-chain [7]: not degraded

rGCP-II: recombinant GCP-II protein expressed in insect cells (Sf21) with baculovirus vector and purified on a Ni-chelating column
degradation of Aβ oligomer versus monomer [8]: reduced faster than Aβ monomer | level of endogenous Aβ42 [9]: decreased | Km [10]: 500 nM | reduction of insoluble Aβ40 ([11]; insoluble fragment of cerebral cortex co-cultured with rGCP-II): 35% | reduction of soluble Aβ40 ([11]; soluble fragment of cerebral cortex co-cultured with rGCP-II): 20%

Source: US7846910B2, “Pharmaceutical composition, composition for screening therapeutics preventing and treating beta amyloid accumulation in brain comprising GCP II (glutamate carboxypeptidase II) as an active ingredient and method for screening using the same” (Korea Center for Disease Control and Prevention, priority 2005, dated 2010)
